Results on 23 compounds are retold here after EP1914236A1 (Ortho-McNeil Pharmaceutical, Inc., priority 2002, dated 2003).

SMILES strings stand for the structures.

Experiment [1] has as its target T1, human B2 bradykinin receptors (Homo sapiens, UniProt P30411).
T1 construct: purchased Receptor Biology, Inc. (Baltimore, MD); host or cells: CHO-K1 cells transfected with the human B2 receptor (membranes)
T1 sequence (P30411 1-391): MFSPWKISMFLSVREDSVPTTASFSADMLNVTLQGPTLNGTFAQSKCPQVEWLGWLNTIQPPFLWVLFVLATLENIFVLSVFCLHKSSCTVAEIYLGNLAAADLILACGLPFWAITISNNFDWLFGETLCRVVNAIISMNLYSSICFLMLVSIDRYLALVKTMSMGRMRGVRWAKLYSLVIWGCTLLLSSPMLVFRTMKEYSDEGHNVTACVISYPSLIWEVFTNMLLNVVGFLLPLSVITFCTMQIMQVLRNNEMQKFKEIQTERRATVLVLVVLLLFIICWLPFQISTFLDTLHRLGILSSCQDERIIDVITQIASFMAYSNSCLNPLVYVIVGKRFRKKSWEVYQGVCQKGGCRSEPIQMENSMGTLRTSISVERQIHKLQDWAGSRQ
In words: Bradykinin B2 (BK2) Receptor Binding Assay. The note with it: membranes of CHO-K1 cells transfected with human B2 bradykinin receptors; ~0.25 nM [3H]NPC17731; 60 min at 25°C. On the procedure: Cell membranes of CHO-K1 cells transfected with human B2 bradykinin receptors (CH)-hB2) were purchased from Receptor Biology, Inc. (Baltimore,MD).
Samples were harvested on a Brandel Cell Harvester on to Wallac filtermat B sheets (96 sample format), and washed three times with 2 mL cold HEPES-buffer (10 mM, pH 7.5), and dried in a microwave oven.
The data were used to calculate either the % inhibition compared to control binding (when only a single concentration of test compound was evaluated) or a Ki value (when a range of concentrations were tested). Background was subtracted from mean cpm values and % inhibition was calculated as: [(total dpm-test compound dpm)/(total dpm-nonspecific dpm)]x100. Kd and Ki values were calculated using GraphPad PRISM data analysis program.

The target in the next experiment is T2, CHO-hB2 cell membranes (Homo sapiens, UniProt P30411).
T2 construct: purchased Receptor Biology, Inc. (Baltimore, MD); host or cells: CHO-hB2 cells (membranes)
T2 sequence (P30411 1-391): T1 sequence (P30411 1-391)
The experiment is described as follows: [35S]GTPγS Binding Assay in CHO-hB2 Cell Membranes. Format: biochemical. Particulars: for Functional Activity (% Basal): number in parentheses, bradykinin-stimulated [35S]GTPγS binding, test concentration not given; for Functional Activity: word part of the cell, effect on bradykinin-stimulated [35S]GTPγS binding. On the procedure:
CHO-hB2 cell membranes were purchased from Receptor Biology, Inc. (Baltimore,MD). 10 mg/mL of membrane protein was suspended in 10 mM TRIS-HC pH 7.2, 2 mM EDTA, 10% sucrose.
Membranes were added into 15 mL ice cold binding assay buffer. The assay buffer contained 50 mM HEPES, pH 7.6, 5 mM MgCl2, 100 mM NaCl, 1 mM DTT and 1 mM EDTA. The membrane suspension was homogenized twice with a Polytron and centrifuged at 3000 rpm for 10 min. The supernatant was then centrifuged at 18,000 rpm for 20 min. The pellet was saved in a tube and resuspended.
The pellet membranes (40 µg/mL) were preincubated with SPA (scintillation proximity assay) beads (20 mg/mL) at 25C° for 45 min in the assay buffer. The SPA beads (5 mg/mL) coupled with membranes (10 µg/mL) were then incubated with 0.5 nM [^35S]GTPγS in the same HEPES buffer containing 50 µM GDP in total volume of 200 µL. Bradykinin was used to stimulate [^35S]GTPγS binding. Varying concentrations of drugs were incubated with bradykinin to inhibit bradykinin-stimulated [^35S]GTPγS binding. The basal binding was tested in the absence of bradykinin and no specific binding was tested in the present 10 µM unlabeled GTPγS. The radioactivity was quantified on a Packard Top Count, and calculated. % of Basal = (stimulated binding-non specific binding)/(basal binding-non specific binding) × 100. [formula]
In general terms: GTPγS is a poorly hydrolysed GTP analogue; its binding reports G protein activation.

Broadly, the Ki is the dissociation constant of the complex between target and ligand, obtained from inhibition or displacement. In turn, `Cc1ccc2cccc(OCc3c(Cl)ccc(N(C)C(=O)Cc4ccc(C(=O)c5ccc(C#N)cc5)n4CC4CC4)c3Cl)c2n1` [Compound 11, 2-[5-(4-Cyano-benzoyl)-1-cyclopropylmethyl-1H-pyrrol-2-yl]-N-[2,4-dichloro-3-(2-methyl-quinolin-8-yloxymethyl)-phenyl]-N-methyl-acetamide] showed a Ki in experiment [1] of 48 nM. On CHO-hB2 cell membranes, the “Functional Activity (% Basal)” value came to 1 % Basal and the “Functional Activity” value is “No effect”.
On the same counts, the results for `Cc1ccc2cccc(OCc3c(Cl)ccc(N(C)C(=O)Cc4ccc(C(=O)c5ccc([S+](C)[O-])cc5)n4C)c3Cl)c2n1` (stereo not drawn) [Compound 73, N-[2,4-Dichloro-3-(2-methyl-quinolin-8-yloxymethyl)-phenyl]-2-[5-(4-methanesuifinyl-benzoyl)-1-methyl-1H-pyrrol-2-yl]-N-methyl-acetamide] are 64 nM, 78 % Basal and “Antagonist”.
In the case of `COc1ccc(C(=O)c2ccc(CC(=O)N(C)c3ccc(Cl)c(COc4cccc5ccc(C)nc45)c3Cl)n2C)cc1` [Compound 68], in experiment [1], the Ki stood at 189 nM. Moreover, on CHO-hB2 cell membranes, the “Functional Activity (% Basal)” value turned out to be 4 % Basal and the “Functional Activity” value was “Weak antagonist”.
`CCCCn1c(CC(=O)N(C)c2ccc(Cl)c(COc3cccc4ccc(C)nc34)c2Cl)ccc1C(=O)c1ccc(C#N)cc1` [Compound 10] came in with a Ki in experiment [1] of 29 nM. In addition, at CHO-hB2 cell membranes, the “Functional Activity (% Basal)” value is reported as 1 % Basal and the “Functional Activity” value was “No effect”.
In turn, `Cc1ccc2cccc(OCc3c(Cl)ccc(N(C)C(=O)Cc4ccc(C(=O)c5ccccc5[N+](=O)[O-])n4C)c3Cl)c2n1` [Compound 66] showed a Ki in experiment [1] of 169 nM. For the same compound, on CHO-hB2 cell membranes, the “Functional Activity (% Basal)” value was determined as 35 % Basal and the “Functional Activity” value was “Antagonist”.
On the same counts, the results for `COc1ccc(C(=O)c2ccc(CC(=O)N(C)c3ccc(Cl)c(COc4cccc5ccc(C)nc45)c3Cl)[nH]2)cc1` [Compound 5] are 71 nM, 61 % Basal and “Antagonist”.
The compound `Cc1ccc2cccc(OCc3c(Cl)ccc(N(C)C(=O)Cc4ccc(C(=O)c5ccc(C#N)cc5)n4CC(C)C)c3Cl)c2n1` [Compound 12] had a Ki in experiment [1] of 54 nM. At CHO-hB2 cell membranes, the “Functional Activity (% Basal)” value is 1 % Basal and the “Functional Activity” value is recorded as “No effect”.
In experiment [1], `Cc1ccc2cccc(OCc3c(Cl)cc(Cl)c(N(C)C(=O)Cc4ccc(C(=O)c5ccc(Cl)nc5)n4C)c3Cl)c2n1` [Compound 117, 2-[5-(6-Chloro-pyridine-3-carbonyl)-1-methyl-1H-pyrrol-2-yl]-N-methyl-N-[2,4,6-trichloro-3-(2-methyl-quinolin-8-yloxymethyl)-phenyl]-acetamide] displayed a Ki of 86.4 nM. In addition, at CHO-hB2 cell membranes, the “Functional Activity (% Basal)” value is 35 % Basal and the “Functional Activity” value was “Antagonist”.
In the same order, the values of `CCCn1c(CC(=O)N(C)c2ccc(Cl)c(COc3cccc4ccc(C)nc34)c2Cl)ccc1C(=O)c1ccc(C#N)cc1` [Compound 9] are 27 nM, 1 % Basal and “No effect”.
On the same counts, the results for `Cc1ccc2cccc(OCc3c(Cl)ccc(N(C)C(=O)Cc4ccc(C(=O)CN5CCC(Cc6ccccc6)CC5)n4C)c3Cl)c2n1` [Compound 59] are 291 nM, 1 % Basal and “No effect”.
On the same counts, the results for `Cc1ccc2cccc(OCc3c(C)ccc(N(C)C(=O)CCc4ccc(C(=O)c5ccncc5)n4C)c3C)c2n1` [Compound 82] are 450 nM, 50 % Basal and “Antagonist”.
`Cc1ccc2cccc(OCc3c(C)ccc(N(C)C(=O)CCc4ccc(C(=O)c5cccnc5)n4C)c3C)c2n1` [Compound 84] gave a Ki in experiment [1] of 304 nM. For the same compound, at CHO-hB2 cell membranes, the “Functional Activity (% Basal)” value came to 57 % Basal and the “Functional Activity” value is listed as “Antagonist”.
In experiment [1], `CSc1ccc(C(=O)c2ccc(CC(=O)N(C)c3ccc(Cl)c(COc4cccc5ccc(C)nc45)c3Cl)n2C)cc1` [Compound 69] returned a Ki of 109 nM. Further, at CHO-hB2 cell membranes, the “Functional Activity (% Basal)” value came out at 41 % Basal and the “Functional Activity” value is listed as “Antagonist”.
As to `Cc1ccc2cccc(OCc3c(Cl)ccc(N(C)C(=O)Cc4ccc(C(=O)c5ccc(C#N)nc5)n4C)c3Cl)c2n1` [Compound 71], the Ki in experiment [1] was 74 nM. Moreover, at CHO-hB2 cell membranes, the “Functional Activity (% Basal)” value is reported as 79 % Basal and the “Functional Activity” value was “Antagonist”.
In the same order, the values of `Cc1ccc2cccc(OCc3c(Cl)ccc(N(C)C(=O)Cc4ccc(C(=O)c5ccc(C(=O)N(C)C)cc5)n4C)c3Cl)c2n1` [Compound 62, 4-[5-({[2,4-Dichloro-3-(2-methyl-quinolin-8-yloxymethyl)-phenyl]-methylcarbamoyl}-methyl)-1-methyl-1H-pyrrole-2-carbonyl]-N,N-dimethyl-benzamide] are 204 nM, 59 % Basal and “Antagonist”.
`CCN(C(=O)Cc1ccc(C(=O)c2ccc(C#N)cc2)n1C)c1ccc(Cl)c(COc2cccc3ccc(C)nc23)c1Cl` [Compound 18]: the Ki in experiment [1] was 55 nM. At CHO-hB2 cell membranes, the “Functional Activity (% Basal)” value is listed as 1 % Basal and the “Functional Activity” value is “No effect”.
On the same counts, the results for `CC(=O)Nc1cccc(C(=O)c2ccc(CC(=O)N(C)c3ccc(Cl)c(COc4cccc5ccc(C)nc45)c3Cl)n2C)c1` [Compound 72] are 85 nM, 74 % Basal and “Antagonist”.
Consider `Cc1ccc2cccc(OCc3c(Cl)ccc(N(C)C(=O)Cc4ccc(C(=O)CN5CCC(c6ccccc6)CC5)n4C)c3Cl)c2n1` [Compound 58, N-[2,4-Dichloro-3-(2-methyl-quinolin-8-yloxymethyl)-phenyl]-N-methyl-2-{1-methyl-5-[2-(4-phenyl-piperidin-1-yl)-acetyl]-1H-pyrrol-2-yl}-acetamide], for which the affinity in experiment [1], expressed as Ki, was 293 nM. On CHO-hB2 cell membranes, the “Functional Activity (% Basal)” value is on record as 1 % Basal and the “Functional Activity” value is given as “No effect”.
In the same order, the values of `Cc1ccc2cccc(OCc3c(Cl)ccc(N(C)C(=O)Cc4ccc(C(=O)c5cccs5)n4C)c3Cl)c2n1` [Compound 61] are 393 nM, 12 % Basal and “Weak antagonist”.
Consider `Cc1ccc2cccc(OCc3c(Cl)ccc(N(C)C(=O)Cc4ccc(C(=O)c5ccc([N+](=O)[O-])cc5)n4C)c3Cl)c2n1` [Compound 63], for which the Ki in experiment [1] is 178 nM. In addition, at CHO-hB2 cell membranes, the “Functional Activity (% Basal)” value came out at 33 % Basal and the “Functional Activity” value is on record as “Antagonist”.
In the same order, the values of `Cc1ccc2cccc(OCc3c(Cl)ccc(N(C)C(=O)CCc4ccc(C(=O)c5cccnc5)n4C)c3Cl)c2n1` [Compound 85] are 15 nM, 65 % Basal and “Antagonist”.
On the same counts, the results for `Cc1ccc2cccc(OCc3c(C)ccc(N(C)C(=O)CCc4ccc(C(=O)c5cccs5)n4C)c3C)c2n1` [Compound 80] are 141 nM, 12 % Basal and “Weak antagonist”.
On the same counts, the results for `COC(=O)c1ccc(C(=O)c2ccc(CC(=O)N(C)c3ccc(Cl)c(COc4cccc5ccc(C)nc45)c3Cl)n2C)cc1` [Compound 64] are 161 nM, 45 % Basal and “Antagonist”.
